ChEMBL document CHEMBL1759891, “Structure based design, synthesis and SAR of cyclic hydroxyethylamine (HEA) BACE-1 inhibitors” (Bioorg Med Chem Lett, 2011)

Key:
[1] = target: Cathepsin D (Homo sapiens, UniProt P07339); assay: Inhibition of human cathepsin D
[2] = system: MDR1 (P-gp); assay: Efflux ratio of permeability from basolateral to apical side to apical to basolateral side of dog MDCK cells expressing human MDR1; format: ADME, cell-based, Canis lupus familiaris
[3] = target: T1, Beta-secretase 1 (Homo sapiens, UniProt P56817); assay: Inhibition of human BACE-1
[4] = system: MDR1 (P-gp); assay: Permeability from apical to basolateral side in dog MDCK cells expressing human MDR-1 gene; format: ADME, cell-based, Canis lupus familiaris; details: read-out: permeability
[5] = system: MDR1 (P-gp); assay: Permeability from basolateral to apical side in dog MDCK cells expressing human MDR-1 gene; format: ADME, cell-based, Canis lupus familiaris; details: read-out: permeability
[6] = Metabolic stability in rat liver microsomes assessed as half life; format: ADME, Microsome
[7] = system: Brain; assay: Drug level in brain of mouse at 2 umol/kg, iv; format: ADME, organism-based; details: in vivo, read-out: Drug uptake
[8] = system: Plasma; assay: Drug level in plasma of mouse at 2 umol/kg, iv; format: ADME; details: read-out: Drug uptake
[9] = target: T1, Beta-secretase 1; assay: Inhibition of human BACE-1-mediated amyloid beta 40 release in APP-transfected […] cells; format: cell-based
[10] = Dissociation constant, pKa of the compound; format: physicochemical
[11] = species: Homo sapiens; assay: Selectivity ratio of IC50 for human cathepsin D to IC50 for human BACE-1

Cathepsin D, sequence (P07339 65-162 limits assumed): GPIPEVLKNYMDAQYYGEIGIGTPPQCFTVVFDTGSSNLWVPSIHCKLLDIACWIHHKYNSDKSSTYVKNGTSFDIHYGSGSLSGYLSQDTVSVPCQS
Cathepsin D, sequence (P07339 169-412 limits assumed): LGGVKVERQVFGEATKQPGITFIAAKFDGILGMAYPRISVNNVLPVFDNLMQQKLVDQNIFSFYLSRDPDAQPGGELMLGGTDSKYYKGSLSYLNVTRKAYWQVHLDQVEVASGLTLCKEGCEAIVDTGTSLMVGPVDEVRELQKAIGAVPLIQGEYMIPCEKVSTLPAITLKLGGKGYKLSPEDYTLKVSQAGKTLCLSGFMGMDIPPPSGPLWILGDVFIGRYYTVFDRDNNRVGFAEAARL
T1 sequence (P56817 whole entry): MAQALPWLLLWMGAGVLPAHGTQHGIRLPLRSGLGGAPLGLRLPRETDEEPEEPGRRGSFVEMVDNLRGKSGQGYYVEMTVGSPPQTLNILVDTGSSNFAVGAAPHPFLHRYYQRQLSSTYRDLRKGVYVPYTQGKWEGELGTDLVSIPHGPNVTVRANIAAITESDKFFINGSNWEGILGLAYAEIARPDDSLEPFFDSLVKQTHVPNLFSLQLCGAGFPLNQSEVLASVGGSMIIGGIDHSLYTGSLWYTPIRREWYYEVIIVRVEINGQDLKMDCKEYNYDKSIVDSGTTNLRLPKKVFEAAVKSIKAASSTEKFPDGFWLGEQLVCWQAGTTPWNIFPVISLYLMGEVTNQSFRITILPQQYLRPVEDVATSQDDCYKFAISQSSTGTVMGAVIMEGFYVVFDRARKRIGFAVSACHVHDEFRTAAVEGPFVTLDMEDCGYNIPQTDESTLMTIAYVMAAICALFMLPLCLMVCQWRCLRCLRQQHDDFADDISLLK

IC50 [1] [µM]	efflux ratio [2]	IC50 [3] [µM]	Papp A→B [4] [×10⁻⁶ cm/s]	Papp B→A [5] [×10⁻⁶ cm/s]	half-life [6] [min]	concentration [7] [nM]	concentration [8] [nM]	IC50 [9] [µM]	pKa [10]	Ratio IC50 [11]	SMILES
2.3	1.4	0.76	5.4	7.7							CC(C)c1cccc(CN[C@H]2CS(=O)(=O)C[C@@H](Cc3cccc(Br)c3)[C@@H]2O)c1 (racemic)
0.42	2.1	0.055	7.7	16	6	180	320	0.55			CC(C)(C)c1cccc(CN[C@H]2CS(=O)(=O)C[C@@H](Cc3ccc(O)c(Br)c3)[C@@H]2O)c1
		> 100									N[C@H]1CS(=O)(=O)C[C@@H](Cc2ccc(O)c(Br)c2)[C@@H]1O
7.1		6.2									Cc1cccc(Cc2cc(C[C@@H]3CS(=O)(=O)C[C@H](NCc4cccc(C(C)C)c4)[C@H]3O)ccc2O)c1 (racemic)
0.9	1.8	1.1	7	13							CCCOCc1cccc(C[C@@H]2CS(=O)(=O)C[C@H](NCc3cccc(C(C)C)c3)[C@H]2O)c1 (racemic)
		4.3									CC(C)c1ccnc(CN[C@H]2CS(=O)(=O)C[C@@H](Cc3ccc(O)c(Br)c3)[C@@H]2O)c1
1.9	5.5	0.15	0.8	4.2							CCCCc1cc(C[C@@H]2CS(=O)(=O)C[C@H](NCc3cccc(C(C)C)c3)[C@H]2O)ccc1O
2.4	3.1	0.37	15	45							CCc1cc(C[C@@H]2CS(=O)(=O)C[C@H](NCc3cccc(C(C)C)c3)[C@H]2O)ccc1O
1.2	3	0.3	11	33	3	210	1030	1.5		10	CC(C)c1cccc(CN[C@H]2CS(=O)(=O)C[C@@H](Cc3ccc(O)c(Br)c3)[C@@H]2O)c1
2.1	17	1.2	1.8	30							CC(C)c1cccc(CN[C@H]2CS(=O)(=O)C[C@@H](Cc3ccc(O)c(CO)c3)[C@@H]2O)c1
		66									O=S1(=O)C[C@@H](Cc2ccc(O)c(Br)c2)[C@H](O)[C@@H](NCc2ccccc2)C1
									5.7		O=S1(=O)C[C@@H](Cc2ccc(O)c(Br)c2)[C@H](O)[C@@H](NCc2cccc(C3CC3)c2)C1

Further lines, the molecule ahead of its results:

SMILES	IC50 [1] [µM]	efflux ratio [2]	IC50 [3] [µM]	Papp A→B [4] [×10⁻⁶ cm/s]	Papp B→A [5] [×10⁻⁶ cm/s]	half-life [6] [min]	concentration [7] [nM]	concentration [8] [nM]	IC50 [9] [µM]	pKa [10]	Ratio IC50 [11]
CNC(=O)Oc1ccc(C[C@@H]2CS(=O)(=O)C[C@H](NCc3cccc(C(C)C)c3)[C@H]2O)cc1Br	0.37	23	0.06	3.8	88						
CC(C)c1cccc(CN[C@H]2CS(=O)(=O)C[C@@H](Cc3ccc(O)cc3)[C@@H]2O)c1 (racemic)	5.4	4.2	1.8	9	37						
O=S1(=O)C[C@@H](Cc2ccc(O)c(Br)c2)[C@H](O)[C@@H](NCc2cc(Cl)cc(Cl)c2)C1			4.2								
CC(C)c1cccc(CN[C@H]2CS(=O)(=O)C[C@@H](Cc3ccc(O)c(CCO)c3)[C@@H]2O)c1	1.7	32	0.99	0.9	28						
CC(C)Oc1cccc(CN[C@H]2CS(=O)(=O)C[C@@H](Cc3ccc(O)c(Br)c3)[C@@H]2O)c1	0.67		1.4						8.5		
CC(C)c1cccc(CN[C@H]2COC[C@@H](Cc3ccc(O)c(Br)c3)[C@@H]2O)c1			55							7.1	
CCCN1C(=O)OC[C@@H]1Cc1cc(C[C@@H]2CS(=O)(=O)C[C@H](NCc3cccc(C(C)C)c3)[C@H]2O)ccc1O	6.4	19		1.4	26	4	< 50	670			
COc1ccc(C[C@@H]2CS(=O)(=O)C[C@H](NCc3cccc(C(C)C)c3)[C@H]2O)cc1Br	2.4	2.6	2.8	3.7	9.7						
CCCc1cc(C[C@@H]2CS(=O)(=O)C[C@H](NCc3cccc(C(C)C)c3)[C@H]2O)ccc1O	1.8	4.4	0.19	4.2	18						
CC(C)c1cccc(CN[C@H]2CS(=O)(=O)C[C@@H](Cc3ccccc3)[C@@H]2O)c1 (racemic)	1.9	1.2	1.1	19	24						
CC(=O)N[C@@H](Cc1cc(F)cc(F)c1)[C@H](O)CNCc1cccc(C(C)C)c1	4.7	18	3.2	2.2	41						
CCCOc1cccc(C[C@@H]2CS(=O)(=O)C[C@H](NCc3cccc(C(C)C)c3)[C@H]2O)c1 (racemic)	2	1.4	2.3	5.7	7.9						
